Experimental data as given in patent EP2511272B1, “Synthetic analogues of abscisic acid with anti-inflammatory and insulin release stimulation effects on human cells” (Universita' degli Studi di Genova, priority 2011, dated 2012).

How the values were obtained:
[1] = Stability after extraction from H2O and HBSS (HPLC-MS); assay type: physicochemical; settings: for Stability after extraction (amount found): 10 µM; for degradation: 0 vs 24 hrs
Method: (§1) Compound prepared according to example 1 was tested for stability at 10 µM concentration in deionized water, phosphate buffer (HBSS with calcium and magnesium) and human plasma for 0 and after 24 hrs at 37 °C, by carrying out the extraction as described in Materials and Methods, and subsequent HPLC-MS analysis for the analyte of interest.
(§2) For stability tests, to 2 ml of deionized water, HBSS or human plasma, the compound of example 1 (10 µM) and 5,000 cpm of [^3H]ABA were added, for the purpose of evaluating the recovery after the extraction procedure. The so prepared samples were exctracted at time 0 and after 24 hrs.
(§3) For the extraction, 8 ml was added of distilled methanol (methanol/water : 80/20 vol/vol) and the mixture was kept at -20 °C overnight.
(§4) The following day the samples were centrifuged at 800xg for 10 minutes and the supernatant was concentrated to dryness by Rotavapor. The reconstituted aqueous solution was acidified at pH 2.6 with 10 % trifluoroacetric acid (TFA) and was extracted three times with diethyl ether (diethyl ether/water: 1:1 vol/vol).
(§5) The ethereal phase was finally removed by Rotavapor and the extraxt was resuspended in 1 ml of HBSS; 8 µl of such solution was analysed by HPLC-MS, and 100 µl was used for radioactivity counting by a Packard β-counter in order to compute extraction recovery.
(§6) The HPLC-MS system used consists of an Agilent 1100 capillary chromatograph equipped with a diode array detector (DAD) and coupled with an Agilent 1100 series LC/MSD Trap mass spectometer with orthogonal electrospray source and a ionic-trap analyser.
(§7) The detection wavelength was 254 nm and the MS spectrum was recorded in negative ions mode in an m/z range of 50-300.
(§8) The amount of compound of example 1 in the extracts and supernatants was computed as the area of the peak under the extracted ion current m/z 279.3, normalized for the ionization efficiency of internal standard (hexadeuterated ABA) used for HPLC-MS analysis. Furthermore, the concentration was computed using the recovery rates obtained from the evaluation of counts per minute (cpm) of extracted [^3H]ABA.

[2] = Stability after extraction from human plasma (HPLC-MS); assay type: in vitro ADME; settings: for Stability after extraction (amount found): Plasma, 10 µM
Method: as §1, §2, §3, §4, §5, §6, §7, §8

[3] = Stability without extraction in H2O and HBSS (HPLC-MS); assay type: physicochemical; settings: 10 µM, 37 °C
Method: (§9) Additionally, stability tests were carried out in water, in HBSS and in HBSS in the presence of human granulocytes at time 0, and after 1 and 2 hrs at 37 °C, and carrying out HPLC-MSS analysis without extracting the analyte of interest.
(§10) In order to test the compound prepared according to example 1 for stability in HBSS in the presence, or absence, of granulocytes, 1 x 10^8 cells were used in 2 ml of HBSS (with calcium and magnesium added) containing 10 µM of compound prepared according to example 1 at 37°C. Samples of 500 µl each were drawn at time 0, and after 1 and 2 hrs and the cells were separated by centrifugation at 200xg for 5 minutes; the supernatant was then recovered and directly analysed in HPLC-MS.
as §6, §7, §8

[4] = tested on: human granulocytes; test: Stability without extraction in HBSS in the presence of human granulocytes (HPLC-MS); assay type: in vitro ADME; settings: for Stability (without extraction): Granulocytes in HBSS, 10 µM, 37 °C
Method: as §9, §10, §6, §7, §8

[5] = tested on: 1321 N1 (human astrocytoma); test: Cytotoxicity, CellTiter 96 AQueous One Solution assay; assay type: cell-based; settings: 24 hrs
[6] = tested on: Raw 264.7 (murine monocitic leukemia); test: as above; assay type: cell-based; settings: 24 hrs
[7] = tested on: granulocytes; test: Inhibition of ABA-induced chemotaxis (granulocyte migration, ChemoTx); assay type: cell-based, human

CC(=C/C(=O)O)/C=C/C1(O)C(C)(C)CC(=O)C2OC21C (stereo not drawn) [Example 1, 2'α,3'α-dihydro-2'α,3'α-epoxyabscisic acid]
Stability after extraction (amount found) ([1]; H2O, 0 hr, equals extraction yield, listed as compound of example 1): 100% | Stability after extraction (amount found) ([1]; H2O, 0 hr, equals extraction yield, listed as compound prepared according to example 1): 100% | Stability after extraction (amount found) ([1]; H2O, 24 hrs at 37 °C): 86% | Stability after extraction (amount found) ([1]; HBSS, 0 hr, equals extraction yield, listed as compound of example 1): 76% | Stability after extraction (amount found) ([1]; HBSS, 0 hr, equals extraction yield, listed as compound prepared according to example 1): 76% | Stability after extraction (amount found) ([1]; HBSS, 24 hrs at 37 °C): 73% | degradation ([1]; in phosphate buffer): 3% | degradation ([1]; in water): 14% | Stability after extraction (amount found) ([2]; 0 hr, equals extraction yield, listed as compound of example 1): 56% | Stability after extraction (amount found) ([2]; 0 hr, equals extraction yield, listed as compound prepared according to example 1): 56% | Stability after extraction (amount found) ([2]; 24 hrs at 37 °C): 49% | degradation ([2]; in plasma, 0 vs 24 hrs): 7% | Stability (without extraction) ([3]; H2O, 0 hr): 100% | Stability (without extraction) ([3]; H2O, 1 h): 100% | Stability (without extraction) ([3]; H2O, 2 hrs): 98% | Stability (without extraction) ([3]; HBSS, 0 hr): 100% | Stability (without extraction) ([3]; HBSS, 1 h): 100% | Stability (without extraction) ([3]; HBSS, 2 hrs): 89% | Stability (without extraction) ([4]; 0 hr): 94% | Stability (without extraction) ([4]; 1 h): 82% | Stability (without extraction) ([4]; 2 hrs): 73% | degradation rate ([4]; phosphate buffer with human granulocytes, non-extracted samples): about 10 %/ hour | number of cells ([5]; 1 nM): 16199 | vitality % ([5]; 1 nM): 89% | number of cells ([5]; 10 nM): 18785 | vitality % ([5]; 10 nM): 102% | number of cells ([5]; 1 µM): 19446 | vitality % ([5]; 1 µM): 106% | number of cells ([5]; 100 µM): 22252 | vitality % ([5]; 100 µM): 120% | number of cells ([6]; 1 nM): 306321 | vitality % ([6]; 1 nM): 100% | number of cells ([6]; 10 nM): 30555 | vitality % ([6]; 10 nM): 100% | number of cells ([6]; 1 µM): 274987 | vitality % ([6]; 1 µM): 90% | number of cells ([6]; 100 µM): 290264 | vitality % ([6]; 100 µM): 95% | CI±SD (chemotactic index) ([7]; ABA 1 µM + compound 10 nM): 1.26±0.07 | inhibition at 0.01 µM ([7]; Homo sapiens, migration towards ABA 1 µM, compound 10 nM): 57%
